Consider five molecules from PMC11251504 (Hypertension (Dallas, Tex. : 1979), 2024).

“Also recorded” adds a separate entry of the source. Peptide text beside a SMILES is read from it.

The nature of data set [1]: Metabolism of Ang-(1-12) in 1:10 diluted human plasma with and without enzyme inhibitors. The conditions noted are these: 37 °C; for Angiotensin metabolite generated from Ang-(1-12), aliskiren + lisinopril / Angiotensin metabolite generated from Ang-(1-12), aliskiren: 60 min after adding 1000 ng/mL Ang-(1-12), t=0 level subtracted; for Angiotensin metabolite generated from Ang-(1-12), aliskiren + lisinopril: aliskiren 10 µmol/L + lisinopril 10 µmol/L; for Angiotensin metabolite generated from Ang-(1-12), aliskiren: aliskiren 10 µmol/L.
Description: Heparin plasma was obtained from 3 healthy volunteers (1 woman, 2 men; age range 30–40 years). The plasma was incubated for 1 hour at 37 °C, in the absence or presence of the renin inhibitor aliskiren (10 µmol/L), the ACE inhibitor lisinopril (10 µmol/L), the chymase inhibitor chymostatin (10 µmol/L), the aminopeptidase A inhibitor amastatin (10 µmol/L), the neprilysin inhibitor sacubitrilat (LBQ-657, 10 µmol/L), or the prolyl oligopeptidase inhibitor ZPP (20 µmol/L). All inhibitors were from Sigma Aldrich, St. Louis, MO. Next, the plasma was diluted 1:10 in PBS (t=0) and incubated again for 1 hour at 37 °C (t=60) with 1000 ng/mL Ang-(1-12; Sigma Aldrich). Samples at 0 and 60 minutes were collected in 6 mol/L guanidine hydrochloride, and angiotensins were quantified by LC-MS/MS.
Human ([sequence], molecular weight: 1508.8 Da) and murine ([sequence], molecular weight: 1572.8 Da) Ang-(1-12) were quantified by LC-MS/MS. […] The powder was dissolved by cooled sonication using a 2-mm microtip (Sonics and Materials, Newton, NJ). Stable isotope-labeled IS for human and murine Ang-(1-12)–containing isoleucine C^13/N^15 (mass +7) at [Ile5] were spiked to tissue homogenates and stabilized blood samples at 1000 pg/mL for internal standardization. The samples then underwent C18-based solid-phase extraction for purification before being subjected to liquid chromatography using a reversed-phase analytical column operating in line with a Xevo TQ-S triple quadruple mass spectrometer (Waters). Two independent MS/MS transitions based on the mass-to-charge ratio of the parent (+3) and fragment ions (+2) were recorded for each analyte and IS simultaneously. Signals from IS were used to correct for peptide recovery in the sample preparation procedure and matrix signal suppression for each analyte in each individual sample.
Data are provided as individual values and means. Statistical analysis was done by the Student’s t test or by ANOVA, followed by post hoc correction according to Dunnett.

Data set [2] is described as follows: Disappearance of Ang-(1-12) added to nonstabilized human plasma incubated at 37 °C. Format: in vitro ADME. The conditions noted are these: LC-MS/MS. As for the experimental part:
MS/MS transitions were as follows:
Signals for all 4 analytes were recorded simultaneously in all samples to show the specificity of the gained signals. […] The lower limit of quantification was 2 fmol/mL in blood and 10 fmol/g in tissue (ie, 3 pg/mL and 15 pg/g, respectively). Ang I, Ang II, Ang III, Ang IV, Ang-(1-7), and Ang-(1-5) were determined by LC-MS/MS as described before.[27],[28]
A rapid collection of blood in 6 mol/L guanidine hydrochloride was chosen for blood collection since this allowed a full recovery of spiked Ang-(1-12; Figure 1A). Importantly, Ang-(1-12) remained undetectable when incubating nonstabilized plasma at 37 °C (Figure 1B), while Ang-(1-12) added to nonstabilized human plasma disappeared almost completely (>80%) within 10 minutes during incubation at 37 °C (Figure 1B). Stabilized human blood samples contained Ang I and Ang II, but Ang-(1-12) was not detectable (Figure 2C). Plasma obtained from the same patients contained normal renin and angiotensinogen levels (Figure 2A and 2B).[29],[30]

A short description of data set [3]: Recovery of spiked Ang-(1-12) from blood collected in 6 mol/L guanidine hydrochloride. Format: in vitro ADME. The conditions noted are these: human blood collected in 6 mol/L guanidine hydrochloride; LC-MS/MS with stable isotope-labeled IS.
The subject of data set [4] is angiotensin-converting enzyme (ACE). Nature of the data set: extracellular, eg, in blood. Conditions: cited from earlier work.
Data set [5] in a line: Heparin plasma from 3 healthy volunteers, diluted 1:10 in PBS. The conditions noted are these: human, 37 °C, up to 60 minutes.
Another data set has as its system chymase. Nature of the data set: intracellular, eg, at tissue sites. Conditions: cited from earlier work.
In a further data set the test system is neprilysin. Nature of the data set: renal cortical membranes. The conditions noted are these: cited from earlier work.
[6] abbreviates: 1:10 diluted human plasma, LC-MS/MS.

Regarding `CC[C@H](C)[C@H](NC(=O)[C@@H](NC(=O)[C@H](CC(C)C)NC(=O)[C@H](Cc1c[nH]cn1)NC(=O)[C@H](Cc1ccccc1)NC(=O)[C@@H]1CCCN1C(=O)[C@H](Cc1c[nH]cn1)NC(=O)[C@@H](NC(=O)[C@H](Cc1ccc(O)cc1)NC(=O)[C@@H](NC(=O)[C@H](CCCNC(=N)N)NC(=O)[C@@H](N)CC(=O)O)C(C)C)[C@@H](C)CC)C(C)C)C(=O)O` [Ang-(1-12), Angiotensin-(1-12)] (H-DRVYIHPFHLVI-OH), the “Contribution of chymase to Ang-(1-12) metabolism” value in data set [1] (1:10 diluted human plasma, 60 min, 1000 ng/mL, chymase inhibitor chymostatin 10 µmol/L, LC-MS/MS, n = 3) is on record as “did not contribute to its metabolism”. In addition, the “Contribution of prolyl oligopeptidase to Ang-(1-12) metabolism” value in data set [1] (1:10 diluted human plasma, 60 min, 1000 ng/mL, prolyl oligopeptidase inhibitor ZPP 20 µmol/L, LC-MS/MS, n = 3) is “did not contribute to its metabolism”. The “Disappearance of Ang-(1-12) in the presence of aliskiren” value in data set [1] (1:10 diluted human plasma, 60 min, 1000 ng/mL, renin inhibitor aliskiren 10 µmol/L, LC-MS/MS, n = 3) is “unaltered”. Moreover, the “Change in Ang-(1-12) recovery after inhibiting neprilysin” value in data set [1] (1:10 diluted human plasma, 60 min, 1000 ng/mL, sacubitrilat (LBQ-657) 10 µmol/L, LC-MS/MS, n = 3) is reported as “did not observe a change”. Further, the “Change of Ang-(1-12) half-life on addition of lisinopril” value in data set [1] (1:10 diluted human plasma, 60 min, 1000 ng/mL, subsequent addition of ACE inhibitor lisinopril 10 µmol/L, LC-MS/MS, n = 3) was “doubling the half-life”. For the same molecule, the “Change of Ang-(1-12) half-life on addition of amastatin” value in data set [1] (1:10 diluted human plasma, 60 min, 1000 ng/mL, subsequent addition of aminopeptidase A inhibitor amastatin 10 µmol/L, LC-MS/MS, n = 3) was “tripling the half-life”. Further, in data set [1] (extrapolated from 1:10 diluted human plasma), the “Half-life of Ang-(1-12) corresponding to undiluted plasma” value was below 3 min. In addition, the “Fraction of added Ang-(1-12) that disappeared within 10 minutes” value in data set [2] (10 minutes) is given as above 80%. Besides, in data set [2] (10 minutes, read-out: Fraction of added Ang-(1-12) that disappeared within 10 minutes), the metabolised at 10 min is around 80%. Further, the “Time within which added angiotensin-(1-12) disappeared” value in data set [2] was at most 10 min. The “Recovery of spiked Ang-(1-12)” value in data set [3] is on record as “full recovery”.
In the case of “angiotensin II (DRVYIHPF; Angiotensin-2; UniProt P01019 25-32, looked up) [Ang II]”, in data set [1] (setting [6]), the “Angiotensin metabolite generated from Ang-(1-12), aliskiren + lisinopril” value was 417 pg/mL and the “Angiotensin metabolite generated from Ang-(1-12), aliskiren” value is 7239 pg/mL.
Take `CC[C@H](C)[C@H](NC(=O)[C@H](Cc1ccc(O)cc1)NC(=O)[C@@H](NC(=O)[C@H](CCCNC(=N)N)NC(=O)[C@@H](N)CC(=O)O)C(C)C)C(=O)N[C@@H](Cc1c[nH]cn1)C(=O)N1CCC[C@H]1C(=O)O` [Ang-(1-7)]: the “Reduction in metabolite formation from Ang-(1-12) by ACE inhibition” value in data set [1] (1:10 diluted human plasma, 60 min, aliskiren + lisinopril vs aliskiren) stood at 50%. Besides, in data set [1] (setting [6]), the “Angiotensin metabolite generated from Ang-(1-12), aliskiren + lisinopril” value is given as 946 pg/mL and the “Angiotensin metabolite generated from Ang-(1-12), aliskiren” value is recorded as 2238 pg/mL.
Regarding DRVYIHPFHLVI, the fragment found result in data set [4] is given as “Ang I; also recorded: Ang II”; in data set [5], “Ang I; also recorded: Ang II; also recorded: Ang-(1-5)”; with chymase it was “Ang II”; in the data set with neprilysin, “Ang-(1-7)”.
Consider `CC[C@H](C)[C@H](NC(=O)[C@H](Cc1ccc(O)cc1)NC(=O)[C@@H](NC(=O)[C@H](CCCNC(=N)N)NC(=O)[C@@H](N)CC(=O)O)C(C)C)C(=O)O` [Ang-(1-5)] (H-DRVYI-OH), for which, in data set [1] (setting [6]), the “Angiotensin metabolite generated from Ang-(1-12), aliskiren + lisinopril” value is below 2 pg/mL and the “Angiotensin metabolite generated from Ang-(1-12), aliskiren” value stood at 983 pg/mL.
